Patent US10647675B2 (priority 2015, dated 2020)
In brackets after ≈: the same amount, converted by molar mass.

Tests used:
[1] = test system: Trichophyton mentagrophytes SM-110; experiment: Antifungal activity evaluation test: minimum inhibitory concentration (MIC), broth dilution by reference to CLSI M38-A2; format: cell-based; conditions: SM110, read-out: MIC (T. menta.)
Method: (§1) The minimum inhibitory concentration (MIC) for Trichophyton mentagrophytes and Trichophyton rubrum was measured by the following procedure by reference to Clinical and Laboratory standards Institute (CLSI) guidelines M38-A2. Reference document for the measurement method: National Committee for a Clinical Laboratory Standards. Reference method for broth dilution antifungal susceptibility testing of filamentous fungi. Approved standard Second edition M38-A2. Wayne, Pa.: National Committee for a Clinical Laboratory Standards, 2008. • Test compound solution: A test compound was dissolved in dimethyl sulfoxide (DMSO) at a concentration of 2.5 mg/mL to give a stock solution. The stock solution was appropriately diluted with DMSO to prepare a 2-fold dilution series. As control compounds, terbinafine and amorolfine were used. • Test strains: Trichophyton mentagrophytes SM-110 and Trichophyton rubrum KD-1130 were used. • Preparation of fungal culture to be inoculated: The above-mentioned test strain was suspended in 0.05% Tween 80-containing saline, and the fungi of the genus Trichophyton were prepared to a fungal concentration of 1×10^6 cells/mL by using a hemocytometer. Then, using MOPS-buffered RPMI 1640 medium (pH 7.0) as a test medium, a fungal culture of the fungi of the genus Trichophyton was diluted 250-fold (4×10^3 cells/mL) to give a fungal culture for inoculation. • MIC measurement of genus Trichophyton fungi: MOPS-buffered RPMI 1640 medium (pH 7.0) was dispensed by 100 μL to given wells of a 96 well U-bottom microplate. Then, the test compound solution (2 μL) was added, the mixture was sufficiently stirred by a plate mixer. The fungal culture (100 μL) was inoculated and the mixture was cultured at 35° C. for 4 days (final fungal concentration: 2×10^3 cells/mL). After the culture, the minimum drug concentration of a well in which a growth inhibitory action of not less than 80% was visually observed as compared to a growth control was taken as a minimum inhibitory concentration (MIC: μg/mL).
(§2) The abbreviations in the Tables mean the following fungi and compounds. • T. menta.: Trichophyton mentagrophytes • T. rubrum: Trichophyton rubrum • TBF: terbinafine • AMF: amorolfine

[2] = test system: Trichophyton rubrum KD-1130; experiment: as above; format: cell-based; conditions: KD1130, read-out: MIC (T. rubrum)
Method: as §1, §2

| SMILES | MIC [1] | MIC [2] |
| --- | --- | --- |
| COc1ccccc1-c1cccnc1Oc1cnc(OCc2ccccc2)nc1 [I-380, 2-(benzyloxy)-5-{[3-(2-methoxyphenyl)pyridin-2-yl]oxy}pyrimidine] | ≤ 0.1 µg/mL | ≤ 0.1 µg/mL |
| FC(F)c1ccc(Oc2ncncc2-c2cccc3ccnn23)cc1 [I-358, 7-{4-[4-(difluoromethyl)phenoxy]pyrimidin-5-yl)pyrazolo[1,5-a]-pyridine] | ≤ 0.1 µg/mL | ≤ 0.1 µg/mL |
| COc1ccncc1-c1cccnc1Oc1ccc(C(C)(F)F)nc1 [I-90, 2-{[6-(1,1-difluoroethyl)pyridin-3-yl]oxy}-4′-methoxy-3,3′-bipyridine] | 0.2 to 0.78 µg/mL (≈ 0.583 to 2.27 µM) | 0.2 to 0.78 µg/mL (≈ 0.583 to 2.27 µM) |
| COc1ccncc1-c1cccnc1Oc1ccc(SC(F)(F)F)cc1 [I-239, 4′-methoxy-2-{4-[(trifluoromethyl)thio]phenoxy}-3,3′-bipyridine] | 0.2 to 0.78 µg/mL (≈ 0.529 to 2.06 µM) | 0.2 to 0.78 µg/mL (≈ 0.529 to 2.06 µM) |
| CC(=O)c1ccccc1-c1cccnc1Oc1ccc(C(F)(F)F)nc1 [I-19, 1-[2-(2-{[6-(trifluoromethyl)pyridin-3-yl]oxy}pyridin-3-yl)phenyl]ethanone] | 1.56 to 6.25 µg/mL (≈ 4.35 to 17.4 µM) | 1.56 to 6.25 µg/mL (≈ 4.35 to 17.4 µM) |
| COc1cc(-c2cncnc2Oc2ccc(C(C)(F)F)nc2)c(F)cc1F [I-334, 4-{[6-(1,1-difluoroethyl)pyridin-3-yl]oxy}-5-(2,4-difluoro-5-methoxyphenyl)pyrimidine] | ≤ 0.1 µg/mL | ≤ 0.1 µg/mL |
| CC(F)(F)c1ccc(Oc2ncccc2-c2cccc3ccnn23)cc1 [I-307, 7-{2-[4-(1,1-difluoroethyl)-phenoxy]pyridin-3-yl}pyrazolo[1,5-a]pyridine] | ≤ 0.1 µg/mL | ≤ 0.1 µg/mL |
| CCc1ccc(Oc2ncccc2-c2cccnc2OC)cn1 [I-126, 2-[(6-ethylpyridin-3-yl)oxy]-2′-methoxy-3,3′-bipyridine] | 0.2 to 0.78 µg/mL (≈ 0.651 to 2.54 µM) | 0.2 to 0.78 µg/mL (≈ 0.651 to 2.54 µM) |
| CC(F)(F)c1ccc(Oc2ncccc2-c2ccncc2F)cn1 [I-92, 2-{[6-(1,1-difluoroethyl)pyridin-3-yl]oxy}-3′-fluoro-3,4′-bipyridine] | 0.2 to 0.78 µg/mL (≈ 0.604 to 2.35 µM) | 0.2 to 0.78 µg/mL (≈ 0.604 to 2.35 µM) |
| FC(F)(F)c1ccc(Oc2ncncc2-c2cccc3ccnn23)cc1 [I-332, 7-{4-[4-(trifluoromethyl)phenoxy]pyrimidin-5-yl}pyrazolo[1,5-a]pyridine] | ≤ 0.1 µg/mL | ≤ 0.1 µg/mL |
| Cc1ncc(-c2ccc(Oc3ncccc3-c3cnccc3C)cc2)o1 [I-423] | ≤ 0.1 µg/mL | ≤ 0.1 µg/mL |
| CC(F)(F)c1ccc(Oc2ncccc2-c2cncc3nccnc23)cn1 [I-111, 8-(2-{[6-(1,1-difluoroethyl)pyridin-3-yl]oxy}pyridin-3-yl)pyrido[3,4-b]pyrazine] | 0.2 to 0.78 µg/mL (≈ 0.547 to 2.13 µM) | 0.2 to 0.78 µg/mL (≈ 0.547 to 2.13 µM) |
| COc1c(F)cncc1-c1cccnc1Oc1ccc(C(C)(F)F)nc1 [I-98, 2-{[6-(1,1-difluoroethyl)pyridin-3-yl]oxy}-5′-fluoro-4′-methoxy-3,3′-bipyridine] | 0.2 to 0.78 µg/mL (≈ 0.554 to 2.16 µM) | 0.2 to 0.78 µg/mL (≈ 0.554 to 2.16 µM) |
| COc1ccccc1-c1cccnc1Oc1ccc(C2CC2)nc1 [I-128, 2-[(6-cyclopropylpyridin-3-yl)oxy]-3-(2-methoxyphenyl)pyridine] | ≤ 0.1 µg/mL | ≤ 0.1 µg/mL |
| CC(F)(F)c1ccc(Oc2ncccc2-c2nccc3ccccc23)cn1 [I-112, 1-(2-{[6-(1,1-difluoroethyl)pyridin-3-yl]oxy}-3-yl)isoquinoline] | 0.2 to 0.78 µg/mL (≈ 0.55 to 2.15 µM) | 0.2 to 0.78 µg/mL (≈ 0.55 to 2.15 µM) |
| COc1cccc(F)c1-c1cccnc1Oc1ccc(C(F)(F)F)nc1 [I-10, 3-(2-fluoro-6-methoxyphenyl)-2-{[6-(trifluoromethyl)pyridin-3-yl]oxy}pyridine] | ≤ 0.1 µg/mL | ≤ 0.1 µg/mL |
| COc1cc(F)ccc1-c1cccnc1Oc1cnc(C(F)(F)F)nc1 [I-179, 5-{[3-(4-fluoro-2-methoxyphenyl)pyridin-2-yl]oxy}-2-(trifluoromethyl)pyrimidine] | ≤ 0.1 µg/mL | ≤ 0.1 µg/mL |
| FC(F)(F)c1ccc(Oc2ncccc2-c2cncc3cccnc23)cc1 [I-225, 8-{2-[4-(trifluoromethyl)phenoxy]pyridin-3-yl}-1,6-naphthyridine] | ≤ 0.1 µg/mL | ≤ 0.1 µg/mL |
| CCc1ccc(Oc2ncccc2-c2cncc(C)c2OC)cc1 [I-286, 2-(4-ethylphenoxy)-4′-methoxy-5′-methyl-3,3′-bipyridine] | ≤ 0.1 µg/mL | ≤ 0.1 µg/mL |
| CCOc1ncc(Oc2ncccc2-c2ccc(F)cc2OC)cn1 [I-187, 2-ethoxy-5-{[3-(4-fluoro-2-methoxyphenyl)pyridin-2-yl]oxy}pyrimidine] | 1.56 to 6.25 µg/mL (≈ 4.57 to 18.3 µM) | 1.56 to 6.25 µg/mL (≈ 4.57 to 18.3 µM) |
| CCc1ccc(Oc2ncccc2-c2cnccc2C)cc1 [I-289, 2-(4-ethylphenoxy)-4′-methyl-3,3′-bipyridine] | ≤ 0.1 µg/mL | ≤ 0.1 µg/mL |
| COc1ccccc1-c1cccnc1Oc1cnc2c(c1)CCCC2OC(C)=O (centres unmarked) [I-139, 3-{[3-(2-methoxyphenyl)pyridin-2-yl]oxy}-5,6,7,8-tetrahydroquinolin-8-yl acetate] | 1.56 to 6.25 µg/mL | 1.56 to 6.25 µg/mL |

| SMILES | MIC [1] | MIC [2] |
| --- | --- | --- |
| COc1cnccc1-c1cccnc1Oc1ccc(C(F)(F)F)cc1 [I-204, 3′-methoxy-2-[4-(trifluoromethyl)phenoxy]-3,4′-bipyridine] | ≤ 0.1 µg/mL | ≤ 0.1 µg/mL |
| COc1ncccc1-c1cccnc1Oc1ccc(C(F)F)c(C)c1 [I-456] | ≤ 0.1 µg/mL | ≤ 0.1 µg/mL |
| COc1ncccc1-c1cccnc1Oc1cnc2c(c1)CCCC2 [I-135, 3-{[2′-methoxy-(3,3′-bipyridin)-2-yl]oxy}-5,6,7,8-tetrahydroquinoline] | ≤ 0.1 µg/mL | ≤ 0.1 µg/mL |
| COc1ccccc1-c1ccc(C)nc1Oc1ccc(C(F)(F)F)nc1 [I-67] | 0.2 to 0.78 µg/mL (≈ 0.555 to 2.16 µM) | 0.2 to 0.78 µg/mL (≈ 0.555 to 2.16 µM) |
| COc1ccncc1-c1cccnc1Oc1ccc(OCc2ccccc2)nc1 [I-177, 2-{[6-(benzyloxy)pyridin-3-yl]oxy}-4′-methoxy-3,3′-bipyridine] | ≤ 0.1 µg/mL | ≤ 0.1 µg/mL |
| CCOC(=O)c1ccc(Oc2ncccc2-c2cnccc2OCC)cc1 [I-415, ethyl 4-{[4′-ethoxy-(3,3′-bipyridin)-2-yl]oxy}benzoate] | ≤ 0.1 µg/mL | ≤ 0.1 µg/mL |
| Cc1ccncc1-c1cccnc1Oc1ccc(C(F)(F)CF)cc1 [I-306] | ≤ 0.1 µg/mL | ≤ 0.1 µg/mL |
| COc1ccccc1-c1cccnc1Oc1ccc(C(F)(F)F)nc1 [I-1, 3-(2-methoxyphenyl)-2-{[6-(trifluoromethyl)pyridin-3-yl]oxy}pyridine] | ≤ 0.1 µg/mL | ≤ 0.1 µg/mL |
| COc1ncccc1-c1cccnc1Oc1ccc(OCc2ccccc2)cc1 [I-277, 2-[4-(benzyloxy)phenoxy]-2′-methoxy-3,3′-bipyridine] | ≤ 0.1 µg/mL | ≤ 0.1 µg/mL |
| Cc1noc(C)c1-c1cccnc1Oc1ccc(C(C)(F)F)nc1 [I-102] | 0.2 to 0.78 µg/mL (≈ 0.604 to 2.35 µM) | 0.2 to 0.78 µg/mL (≈ 0.604 to 2.35 µM) |
| COCC1(c2ccc(Oc3ncccc3-c3cnccc3OC)cc2)CC1 [I-276, 4′-methoxy-2-{4-[1-(methoxymethyl)cyclopropyl]phenoxy}-3,3′-bipyridine] | 0.2 to 0.78 µg/mL (≈ 0.552 to 2.15 µM) | 0.2 to 0.78 µg/mL (≈ 0.552 to 2.15 µM) |
| Cc1ccncc1-c1cccnc1Oc1ccc(-c2ccccn2)cc1 [I-431] | ≤ 0.1 µg/mL | ≤ 0.1 µg/mL |
| CCCCN(C)c1ncc(Oc2ncccc2-c2cnccc2OC)cn1 [I-384] | ≤ 0.1 µg/mL | ≤ 0.1 µg/mL |
| COCCN(C)c1ncc(Oc2ncccc2-c2cccc3c2OCC3)cn1 [I-450] | ≤ 0.1 µg/mL | ≤ 0.1 µg/mL |
| COc1cc(-c2cncnc2Oc2ccc(C(F)F)nc2)c(F)cc1F [I-363, 5-(2,4-difluoro-5-methoxyphenyl)-4-{[6-(difluoromethyl)pyridin-3-yl]oxy}pyrimidine] | ≤ 0.1 µg/mL | ≤ 0.1 µg/mL |
| COc1ccccc1-c1cccnc1Oc1ccc(COc2ccccc2)nc1 [I-175, 3-(2-methoxyphenyl)-2-{[6-(phenoxymethyl)pyridin-3-yl]oxy}pyridine] | 0.2 to 0.78 µg/mL (≈ 0.52 to 2.03 µM) | 0.2 to 0.78 µg/mL (≈ 0.52 to 2.03 µM) |
| FC(F)(F)c1ccc(Oc2ncccc2-c2cccc3c(Br)cnn23)cn1 [I-52, 3-bromo-7-(2-{[6-(trifluoromethyl)pyridin-3-yl]oxy}pyridin-3-yl)-pyrazolo[1,5-a]pyridine] | 0.2 to 0.78 µg/mL (≈ 0.46 to 1.79 µM) | ≤ 0.1 µg/mL |
| COCC(F)(F)c1ccc(Oc2ncccc2-c2ccc(OC)nc2OC)cn1 [I-460] | ≤ 0.1 µg/mL | ≤ 0.1 µg/mL |
| COc1cc(F)ccc1-c1cncnc1Oc1ccc(C(C)(F)F)nc1 [I-359, 4-{[6-(1,1-difluoroethyl)pyridin-3-yl]oxy}-5-(4-fluoro-2-methoxyphenyl)pyrimidine] | ≤ 0.1 µg/mL | ≤ 0.1 µg/mL |
| FC(F)(F)c1ccc(Oc2ncccc2-c2cccc3nccnc23)cc1 [I-224, 5-{2-[4-(trifluoromethyl)phenoxy]pyridin-3-yl}quinoxaline] | ≤ 0.1 µg/mL | ≤ 0.1 µg/mL |
| COc1ncccc1-c1cccnc1Oc1ccc(CCOC(=O)N(C)C)cc1 [I-398, 4-{[(2′-methoxy-(3,3′-bipyridin)-2-yl]oxy}phenethyl dimethylcarbamate] | ≤ 0.1 µg/mL | ≤ 0.1 µg/mL |
